Source: article PMC8745710, “Biological Evaluation and Molecular Docking Studies of Novel 1,3,4-Oxadiazole Derivatives of 4,6-Dimethyl-2-sulfanylpyridine-3-carboxamide” (International Journal of Molecular Sciences, 2022)

Assays:
[1] = target: T1, COX-2 (Homo sapiens, UniProt P35354); assay: COX colorimetric inhibitor screening assay, COX-2; format: biochemical; conditions: for IC50 [µM] ± SD COX-2 / IC50: after 2 min of incubation, n = 5; for IC50: read-out: IC50 [µM] ± SD COX-2; for COX-2/COX-1 Selectivity Ratio: ratio of IC50 COX-2 / IC50 COX-1
T1 construct: purchased Cayman Chemical Company, Ann Arbor, MI, USA
T1 sequence (P35354 18-604): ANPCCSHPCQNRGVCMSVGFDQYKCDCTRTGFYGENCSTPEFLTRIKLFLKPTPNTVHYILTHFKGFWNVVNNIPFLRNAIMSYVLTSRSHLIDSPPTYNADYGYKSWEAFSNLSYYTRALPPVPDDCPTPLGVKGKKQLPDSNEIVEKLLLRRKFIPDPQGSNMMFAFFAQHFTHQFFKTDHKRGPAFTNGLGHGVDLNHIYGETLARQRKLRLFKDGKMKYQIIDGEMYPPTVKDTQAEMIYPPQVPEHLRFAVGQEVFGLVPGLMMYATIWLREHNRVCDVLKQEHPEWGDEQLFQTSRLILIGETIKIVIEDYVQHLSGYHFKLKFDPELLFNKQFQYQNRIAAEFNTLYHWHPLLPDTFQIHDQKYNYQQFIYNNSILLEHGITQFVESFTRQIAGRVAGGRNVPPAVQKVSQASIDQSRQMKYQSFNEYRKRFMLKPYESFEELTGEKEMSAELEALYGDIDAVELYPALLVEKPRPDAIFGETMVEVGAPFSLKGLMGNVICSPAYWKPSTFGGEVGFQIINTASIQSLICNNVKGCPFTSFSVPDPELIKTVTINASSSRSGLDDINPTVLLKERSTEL
From the text: (§1) The compounds were studied for their potencies to inhibit COX-1 and COX-2 enzymes by the colorimetric inhibitor screening assay.
(§2) A COX Colorimetric Inhibitor Screening Assay Kit, produced by Cayman Chemical Company, Ann Arbor, MI, USA, was used. It used the colorimetric monitoring of oxidized form of TMPD (N,N,N′,N′-tetramethyl-p-phenylenediamine) which was produced during reduction of prostaglandin G2 (PGG2) to PGH2. […] Reagents used it this assay were: COX-1 and COX-2 enzymes, Tris-HCl buffer, solutions of heme in DMSO and TMPD, arachidonic acid, KOH. To be sure that 100% enzymatic activity was achieved each sample was measured 3 times. The probes were measured after two minutes of incubation with tested compounds in the comparison to the initial activity of enzyme.

[2] = tested on: LoVo/Dx (drug resistant subline of LoVo); assay: MTT assay, LoVo/Dx; format: cell-based; conditions: Homo sapiens, 48 h incubation, read-out: IC50 [µM] ± SD LoVo/Dx
From the text: (§3) The MTT (3-[4,5-dimethylthiazol-2-yl]-2,5-diphenyl tetrazolium bromide) assay was used to determine the cytotoxicity of tested compounds towards different cell lines: normal human dermal fibroblasts (NHDF), kidney epithelial cells (VERO), fibroblasts from Chinese hamster lung (V79) and four human cancer cells: A549 (pulmonary basal cell alveolar adenocarcinoma), MCF-7 (breast adenocarcinoma), LoVo (colon adenocarcinoma), and its drug resistant subline LoVo/Dx. The cell lines used in this study express COX-1 and COX-2. The LoVo line expressed COX-1, the LoVo/Dx subline express both COX-1 and COX-2 [61].
Each cell line was grown in the culture media recommended by supplier. Before the test they were detached with trypsin/EDTA solution, then to neutralize the effect of Trypsin/EDTA solution, FBS containing medium was used. After centrifugation the cells were stained with 0.4% solution of trypan blue, counted and inspected for viability using microscope. […] The number of cells was 2 × 10^3 cells per well. The tested compounds with different concentrations (5, 10, 20, 50, 100 µM) were dissolved in DMSO and then added to the cells (the final DMSO concentration was 0.1%). The cultures were incubated for another 48 h. After that time the cells were collected to be used in tests.
MTT assay was used to find out how tested compounds influence the metabolic activity of investigated cell lines. The cells were incubated with tested compounds. […] The medium was removed again, and formazan crystals were dissolved in isopropanol.

[3] = target: T2, COX-1 (Ovis aries, UniProt P05979); assay: COX colorimetric inhibitor screening assay, COX-1; format: biochemical; conditions: after 2 min of incubation, n = 5; for IC50: read-out: IC50 [µM] ± SD COX-1
T2 construct: purchased Cayman Chemical Company, Ann Arbor, MI, USA
T2 sequence (P05979 25-600): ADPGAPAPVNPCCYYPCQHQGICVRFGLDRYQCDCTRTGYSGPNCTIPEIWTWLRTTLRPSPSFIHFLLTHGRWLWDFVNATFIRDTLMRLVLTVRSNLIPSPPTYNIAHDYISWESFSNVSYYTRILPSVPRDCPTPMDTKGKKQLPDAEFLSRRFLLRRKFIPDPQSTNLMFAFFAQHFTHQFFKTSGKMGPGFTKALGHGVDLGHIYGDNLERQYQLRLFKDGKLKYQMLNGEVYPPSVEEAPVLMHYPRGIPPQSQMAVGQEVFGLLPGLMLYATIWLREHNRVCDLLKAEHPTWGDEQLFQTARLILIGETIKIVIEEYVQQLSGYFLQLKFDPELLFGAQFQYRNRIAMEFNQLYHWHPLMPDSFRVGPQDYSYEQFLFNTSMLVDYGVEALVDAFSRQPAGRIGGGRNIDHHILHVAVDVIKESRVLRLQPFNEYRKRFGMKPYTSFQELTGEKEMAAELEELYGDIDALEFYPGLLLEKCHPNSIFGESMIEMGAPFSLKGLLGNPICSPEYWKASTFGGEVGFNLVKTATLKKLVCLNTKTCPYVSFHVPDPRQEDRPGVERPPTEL
From the text: as §1, §2

[4] = tested on: A549 (pulmonary basal cell alveolar adenocarcinoma); assay: MTT assay, A549; format: cell-based; conditions: Homo sapiens, 48 h incubation, read-out: IC50 [µM] ± SD A549
From the text: as §3
(§4) Each cell line was grown in the culture media recommended by supplier. Before the test they were detached with trypsin/EDTA solution, then to neutralize the effect of Trypsin/EDTA solution, FBS containing medium was used. After centrifugation the cells were stained with 0.4% solution of trypan blue, counted and inspected for viability using microscope. In the end, cells were inserted into 96-well culture plates and incubated in CO2 incubator (37 °C, 24 h). The number of cells was 2 × 10^3 cells per well. The tested compounds with different concentrations (5, 10, 20, 50, 100 µM) were dissolved in DMSO and then added to the cells (the final DMSO concentration was 0.1%). The cultures were incubated for another 48 h. After that time the cells were collected to be used in tests.
(§5) MTT assay was used to find out how tested compounds influence the metabolic activity of investigated cell lines. The cells were incubated with tested compounds. After removing of supernatant, 1 mg/mL of MTT solution in MEM was added to the plate (to each well) and then the plates were incubated at 37 °C for 2 h. The medium was removed again, and formazan crystals were dissolved in isopropanol. A Varioscan LUX microplate reader (Thermo Fisher Scientific, Waltham, MA, USA) was used to measure absorbance at 570 nm.

[5] = tested on: V79 (fibroblasts from Chinese hamster lung); assay: MTT assay, V79; format: cell-based; conditions: Cricetulus griseus, Fibroblast, 48 h incubation, read-out: IC50 [µM] ± SD V79
From the text: as §3, §4, §5

IC50 [µM] ± SD COX-2 [1]	IC50 [2]	IC50 [3]	IC50 [4]	IC50 [1]	COX-2/COX-1 Selectivity Ratio [1]	Compound	IC50 [5]	IC50 [µM] ± SD COX-1 [3]
–	17.5 ± 8.73 µM	86.2 ± 2.6 µM	3.72 ± 0.24 µM	170 ± 19.1 µM	1.97	Cc1cc(C)c(C(=O)NCc2nn(CC(=O)NN=Cc3ccc(C(F)(F)F)cc3)c(=S)o2)c(S)n1 [Compound 11, 4,6-Dimethyl-N-{[4-(2-(2-(4-trifluoromethylbenzylidene)hydrazinyl)-2-oxoethyl)-5-sulfanylidene-4,5-dihydro-1,3,4-oxadiazole-2-yl]methyl}-2-sulfanylpyridine-3-carboxamide]	55.2 ± 2.75 µM	–
–	22.6 ± 8.19 µM	66.8 ± 5.19 µM	3.88 ± 0.5 µM	90.7 ± 19.6 µM	1.36	Cc1cc(C)c(C(=O)NCc2nn(CC(=O)NN=Cc3cccc(Cl)c3)c(=S)o2)c(S)n1 [Compound 12, 4,6-Dimethyl-N-{[4-(2-(2-(3-chlorobenzylidene)hydrazinyl)-2-oxoethyl)-5-sulfanylidene-4,5-dihydro-1,3,4-oxadiazole-2-yl]methyl}-2-sulfanylpyridine-3-carboxamide]	52.8 ± 7.2 µM	–
–	9.4 ± 5.97 µM	84.4 ± 5.89 µM	3.16 ± 0.21 µM	73.2 ± 5.66 µM	–	Cc1cc(C)c(C(=O)NCc2nn(CC(=O)NN=Cc3ccccc3Br)c(=S)o2)c(S)n1 [Compound 13, 4,6-Dimethyl-N-{[4-(2-(2-(2-bromobenzylidene)hydrazinyl)-2-oxoethyl)-5-sulfanylidene-4,5-dihydro-1,3,4-oxadiazole-2-yl]methyl}-2-sulfanylpyridine-3-carboxamide]	65.4 ± 4.04 µM	–

More lines, now with the values behind:

Compound	IC50 [µM] ± SD COX-2 [1]	IC50 [2]	IC50 [3]	IC50 [4]	IC50 [1]	COX-2/COX-1 Selectivity Ratio [1]	IC50 [5]	IC50 [µM] ± SD COX-1 [3]
Cc1cc(C)c(C(=O)NCc2nn(CC(=O)NN)c(=S)o2)c(S)n1 [Compound 4, N-{[4-(2-hydrazinyl-2-oxoethyl)-5-sulfanylidene-4,5-dihydro-1,3,4-oxadiazol-2-yl]methyl}-4,6-dimethyl-2-sulfanylpyridine-3-carboxamide]	showed only COX-1 inhibitory activity	5.73 ± 3.84 µM	135 ± 5.99 µM	3.84 ± 0.3 µM	–	–	71.7 ± 5.8 µM	–
Cc1cc(C)c(C(=O)NCc2nn(CC(=O)NN=Cc3ccccc3)c(=S)o2)c(S)n1 [Compound 5, 4,6-Dimethyl-N-{[4-(2-(2-benzylidenehydrazinyl)-2-oxoethyl)-5-sulfanylidene-4,5-dihydro-1,3,4-oxadiazol-2-yl]methyl}-2-sulfanylpyridine-3-carboxamide]	–	5.69 ± 1.03 µM	73.9 ± 3.03 µM	3.62 ± 0.43 µM	187 ± 15.3 µM	2.53	84.3 ± 3.4 µM	–
Cc1cc(C)c(C(=O)NCc2nn(CC(=O)NN=Cc3ccc(F)cc3)c(=S)o2)c(S)n1 [Compound 6, 4,6-Dimethyl-N-{[4-(2-(2-(4-fluorobenzylidene)hydrazinyl)-2-oxoethyl)-5-sulfanylidene-4,5-dihydro-1,3,4-oxadiazole-2-yl]methyl}-2-sulfanylpyridine-3-carboxamide]	–	7.07 ± 2.48 µM	145 ± 20.9 µM	4.05 ± 0.26 µM	174 ± 5.84 µM	1.20	80.7 ± 5.6 µM	–
Cc1ccc(C=NNC(=O)Cn2nc(CNC(=O)c3c(C)cc(C)nc3S)oc2=S)cc1 [Compound 7, 4,6-Dimethyl-N-{[4-(2-(2-(4-methylbenzylidene)hydrazinyl)-2-oxoethyl)-5-sulfanylidene-4,5-dihydro-1,3,4-oxadiazole-2-yl]methyl}-2-sulfanylpyridine-3-carboxamide]	–	7.89 ± 1.78 µM	148 ± 19.8 µM	3.72 ± 0.54 µM	184 ± 18.8 µM	1.25	47.7 ± 1.73 µM	–
CSc1ccc(/C=N\NC(=O)Cn2nc(CNC(=O)c3c(C)cc(C)nc3S)oc2=S)cc1 [Compound 8, 4,6-Dimethyl-N-{[4-(2-(2-(4-methysulfanylbenzylidene)hydrazinyl)-2-oxoethyl)-5-sulfanylidene-4,5-dihydro-1,3,4-oxadiazole-2-yl]methyl}-2-sulfanylpyridine-3-carboxamide]	showed only COX-1 inhibitory activity	21 ± 5.92 µM	157 ± 12.1 µM	4.34 ± 0.56 µM	–	–	71.1 ± 2.4 µM	–
Cc1cc(C)c(C(=O)NCc2nn(CC(=O)NN=Cc3ccc(C#N)cc3)c(=S)o2)c(S)n1 [Compound 9, 4,6-Dimethyl-N-{[4-(2-(2-(4-cyanobenzylidene)hydrazinyl)-2-oxoethyl)-5-sulfanylidene-4,5-dihydro-1,3,4-oxadiazole-2-yl]methyl}-2-sulfanylpyridine-3-carboxamide]	–	6.87 ± 1.45 µM	154 ± 6.29 µM	3.36 ± 0.2 µM	103 ± 10.6 µM	0.67	77.7 ± 4.41 µM	–
Cc1cc(C)c(C(=O)NCc2nn(CC(=O)NN=Cc3ccc(Cl)cc3)c(=S)o2)c(S)n1 [Compound 10, 4,6-Dimethyl-N-{[4-(2-(2-(4-chlorobenzylidene)hydrazinyl)-2-oxoethyl)-5-sulfanylidene-4,5-dihydro-1,3,4-oxadiazole-2-yl]methyl}-2-sulfanylpyridine-3-carboxamide]	–	22.3 ± 2.1 µM	–	3.52 ± 0.19 µM	128 ± 1.87 µM	–	56.1 ± 5.42 µM	selectively inhibited the activity of COX-2
